Molecular target: T1, autotaxin (ATX) (Homo sapiens, UniProt Q13822)
T1 construct: conditioned medium from the human melanoma cell line, MDA-MB-4355, which endogenously expresses autotaxin; host or cells: MDA-MB-435S human melanoma cells; serum-free conditioned medium, concentrated 20-fold
Experiment: Native Autotaxin Choline Release Assay
Format: biochemical
Details: autotaxin in conditioned medium from human melanoma cell line; choline released from LPC; read-out: MDA-MB-435S Assay IC50
Outline: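 Native ATX from conditioned serum-free, phenol-red-free DMEM of confluent cells cultured 48 h; LPC as substrate. Released choline detected with choline oxidase/peroxidase/4-aminoantipyrine colour mix in 50 mM Tris pH 8, 10 min at 37 °C, absorbance 555 nm; choline quantified against standard curve, equated to LPA formed.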

SMILES	IC50 [nM]
Cc1c(Sc2ccccc2CC(=O)O)c2ccc(Cl)cc2n1C [Compound 3-10, [2-(6-Chloro-1,2-dimethyl-1H-indol-3-ylsulfanyl)-phenyl]-acetic acid]	> 1000
Cc1c(Sc2ccc(CC(=O)O)cc2)c2ccc(Cl)cc2n1C [Compound 3-11, [4-(6-Chloro-1,2-dimethyl-1H-indol-3-ylsulfanyl)-phenyl]-acetic acid]	> 1000
Cc1c(Sc2cccc(CC(=O)O)c2)c2cc(Cl)ccc2n1C [Compound 3-12, [3-(5-Chloro-1,2-dimethyl-1H-indol-3-ylsulfanyl)-phenyl]-acetic acid]	> 1000
O=C(O)c1cccc(Sc2c(C(F)(F)F)n(Cc3ccccc3)c3cc(Cl)ccc23)c1 [Compound 3-13, 3-(1-Benzyl-6-chloro-2-trifluoromethyl-1H-indol-3-ylsulfanyl)-benzoic acid]	> 1000
CCc1c(Sc2cccc(C(=O)O)c2)c2ccc(Cl)cc2n1Cc1ccccc1 [Compound 3-15, 3-(1-Benzyl-6-chloro-2-ethyl-1H-indol-3-ylsulfanyl)-benzoic acid]	> 1000
O=C(O)c1cccc(Sc2cn(Cc3ccccc3)c3cc(Cl)ccc23)c1 [Compound 3-17, 3-(1-Benzyl-6-chloro-1H-indol-3-ylsulfanyl)-benzoic acid]	300 to 1000
O=C(O)c1cccc(Sc2cn(-c3cccnc3)c3cc(Cl)ccc23)c1 [Compound 3-19, 3-(6-Chloro-1-pyridin-3-yl-1H-indol-3-ylsulfanyl)-benzoic acid]	300 to 1000
Cc1c(Sc2cccc(C(C)C(=O)O)c2)c2ccc(Cl)cc2n1-c1cccnc1 (stereo not drawn) [Compound 3-20, 2-[3-(6-Chloro-2-methyl-1-pyridin-3-yl-1H-indol-3-ylsulfanyl)-phenyl]-propionic acid]	< 300
CCn1cc(-n2c(C)c(Sc3cccc(C(=O)O)c3)c3ccc(Cl)c(C)c32)cn1 [Compound 3-21, 3-[6-Chloro-1-(1-ethyl-1H-pyrazol-4-yl)-2,7-dimethyl-1H-indol-3-ylsulfanyl]-benzoic acid]	< 300
Cc1c(Sc2cccc(C(=O)O)c2)c2ccc(Cl)c(F)c2n1-c1cnn(-c2ccccc2)c1 [Compound 3-23, 3-[6-Chloro-7-fluoro-2-methyl-1-(1-phenyl-1H-pyrazol-4-yl)-1H-indol-3-ylsulfanyl]-benzoic acid]	< 300
CCn1cc(-n2c(C)c(Sc3cccc(C(=O)O)c3)c3cc(F)c(Cl)cc32)cn1 [Compound 3-26, 3-[6-Chloro-1-(1-ethyl-1H-pyrazol-4-yl)-5-fluoro-2-methyl-1H-indol-3-ylsulfanyl]-benzoic acid]	< 300
CCCn1cc(-n2c(C)c(Sc3cccc(C(=O)O)c3)c3cc(F)c(Cl)cc32)cn1 [Compound 3-27, 3-[6-Chloro-5-fluoro-2-methyl-1-(1-propyl-1H-pyrazol-4-yl)-1H-indol-3-ylsulfanyl]-benzoic acid]	< 300
CCn1cc(-n2c(C)c(Sc3cccc(C(=O)NS(C)(=O)=O)c3)c3ccc(Cl)c(F)c32)cn1 [Compound 3-29, N-{3-[6-Chloro-1-(1-ethyl-1H-pyrazol-4-yl)-7-fluoro-2-methyl-1H-indol-3-ylsulfanyl]-benzoyl}-methanesulfonamide]	< 300
CCn1cc(-n2c(C)c(Sc3ccc(CC(=O)O)cc3)c3ccc(Cl)cc32)cn1 [Compound 3-30, {4-[6-Chloro-1-(1-ethyl-1H-pyrazol-4-yl)-2-methyl-1H-indol-3-ylsulfanyl]-phenyl}-acetic acid]	< 300
CCn1cc(-n2c(C)c(Sc3cccc(C(=O)O)c3)c3ccc(C#N)cc32)cn1 [Compound 3-31, 3-[6-Cyano-1-(1-ethyl-1H-pyrazol-4-yl)-2-methyl-1H-indol-3-ylsulfanyl]-benzoic acid]	< 300
Cc1c(Sc2cccc(C(=O)O)c2)c2ccc(Cl)c(F)c2n1-c1cnn(C2CCCC2)c1 [Compound 3-35, 3-[6-Chloro-1-(1-cyclopentyl-1H-pyrazol-4-yl)-7-fluoro-2-methyl-1H-indol-3-ylsulfanyl]-benzoic acid]	< 300
CCCn1cc(-n2c(C)c(Sc3cccc(CC(=O)O)c3)c3ccc(Cl)c(F)c32)cn1 [Compound 3-37, {3-[6-chloro-7-fluoro-2-methyl-1-(1-propyl-1H-pyrazol-4-yl)-1H-indol-3-ylsulfanyl]-phenyl}-acetic acid]	< 300
CCn1cc(-n2c(C)c(Sc3cccc(C(=O)NS(=O)(=O)c4ccccc4)c3)c3ccc(Cl)c(F)c32)cn1 [Compound 3-42, N-{3-[6-Chloro-1-(1-ethyl-1H-pyrazol-4-yl)-7-fluoro-2-methyl-1H-indol-3-ylsulfanyl]-benzoyl}-benzenesulfonamide]	< 300
COc1ccc(Cn2cc(-n3c(C)c(Sc4cccc(C(=O)O)c4)c4ccc(Cl)c(F)c43)cn2)cc1 [Compound 3-48, 3-{6-Chloro-7-fluoro-1-[1-(4-methoxy-benzyl)-1H-pyrazol-4-yl]-2-methyl-1H-indol-3-ylsulfanyl}-benzoic acid]	< 300
CCn1cc(-n2c(C)c(Sc3cccc(C(=O)NS(=O)(=O)C4CC4)c3)c3ccc(Cl)c(F)c32)cn1 [Compound 3-51, cyclopropanesulfonic acid 3-[6-chloro-1-(1-ethyl-1H-pyrazol-4-yl)-7-fluoro-2-methyl-1H-indol-3-ylsulfanyl]-benzoylamide]	< 300
CCn1cc(-n2c(C)c(Sc3cccc(C(=O)O)c3)c3ccc(Cl)c(Cl)c32)cn1 [Compound 3-52, 3-[6,7-Dichloro-1-(1-ethyl-1H-pyrazol-4-yl)-2-methyl-1H-indol-3-ylsulfanyl]-benzoic acid]	< 300
CCCn1cc(-n2c(C)c(Sc3cccc(CC(=O)NS(C)(=O)=O)c3)c3ccc(Cl)cc32)cn1 [Compound 3-53, N-(2-{3-[6-Chloro-2-methyl-1-(1-propyl-1H-pyrazol-4-yl)-1H-indol-3-ylsulfanyl]-phenyl}-acetyl)-methanesulfonamide]	< 300
CCCn1cc(-n2c(C)c(Sc3cccc(CC(=O)NS(=O)(=O)C4CC4)c3)c3ccc(Cl)cc32)cn1 [Compound 3-54, cyclopropanesulfonic acid (2-{3-[6-chloro-2-methyl-1-(1-propyl-1H-pyrazol-4-yl)-1H-indol-3-ylsulfanyl]-phenyl}-acetyl)-amide]	< 300
CCCn1cc(-n2c(C)c(Sc3cccc(CC(=O)NS(=O)(=O)c4ccccc4)c3)c3ccc(Cl)cc32)cn1 [Compound 3-55, N-(2-{3-[6-Chloro-2-methyl-1-(1-propyl-1H-pyrazol-4-yl)-1H-indol-3-ylsulfanyl]-phenyl}-acetyl)-benzenesulfonamide]	< 300

Next, values leading:

IC50 [nM]	SMILES
< 300	CCn1cc(-n2c(C)c(Sc3cccc(C(=O)O)c3)c3ccc(Cl)c(F)c32)cn1 [Compound 3-16, 3-[6-Chloro-1-(1-ethyl-1H-pyrazol-4-yl)-7-fluoro-2-methyl-1H-indol-3-ylsulfanyl]-benzoic acid]
< 300	Cc1cncc(-n2c(C)c(Sc3cccc(C(=O)O)c3)c3ccc(Cl)c(F)c32)c1 [Compound 3-22, 3-[6-Chloro-7-fluoro-2-methyl-1-(5-methyl-pyridin-3-yl)-1H-indol-3-ylsulfanyl]-benzoic acid]
< 300	CCCn1cc(-n2c(C)c(Sc3cccc(C(=O)O)c3)c3ccc(Cl)c(F)c32)cn1 [Compound 3-24, 3-[6-Chloro-7-fluoro-2-methyl-1-(1-propyl-1H-pyrazol-4-yl)-1H-indol-3-ylsulfanyl]-benzoic acid]
< 300	CCc1cncc(-n2c(C)c(Sc3cccc(C(=O)O)c3)c3ccc(Cl)c(F)c32)c1 [Compound 3-25, 3-[6-Chloro-1-(5-ethyl-pyridin-3-yl)-7-fluoro-2-methyl-1H-indol-3-ylsulfanyl]-benzoic acid]
< 300	CCn1cc(-n2c(C)c(Sc3cccc(CC(=O)O)c3)c3ccc(Cl)c(F)c32)cn1 [Compound 3-28, {3-[6-Chloro-1-(1-ethyl-1H-pyrazol-4-yl)-7-fluoro-2-methyl-1H-indol-3-ylsulfanyl]-phenyl}-acetic acid]
< 300	Cc1ccc(-n2cc(-n3c(C)c(Sc4cccc(C(=O)O)c4)c4ccc(Cl)c(F)c43)cn2)cc1 [Compound 3-32, 3-[6-Chloro-7-fluoro-2-methyl-1-(1-p-tolyl-1H-pyrazol-4-yl)-1H-indol-3-ylsulfanyl]-benzoic acid]
< 300	Cc1c(Sc2cccc(C(=O)O)c2)c2ccc(Cl)c(F)c2n1-c1cnn(-c2cccc(Cl)c2)c1 [Compound 3-33, 3-{6-Chloro-1-[1-(3-chloro-phenyl)-1H-pyrazol-4-yl]-7-fluoro-2-methyl-1H-indol-3-ylsulfanyl}-benzoic acid]
< 300	Cc1c(Sc2cccc(C(=O)O)c2)c2ccc(Cl)c(F)c2n1-c1cnn(CC2CC2)c1 [Compound 3-34, 3-[6-Chloro-1-(1-cyclopropylmethyl-1H-pyrazol-4-yl)-7-fluoro-2-methyl-1H-indol-3-ylsulfanyl]-benzoic acid]
< 300	Cc1c(Sc2cccc(C(=O)O)c2)c2ccc(Cl)c(F)c2n1-c1cnn(C2CCC2)c1 [Compound 3-36, 3-[6-Chloro-1-(1-cyclobutyl-1H-pyrazol-4-yl)-7-fluoro-2-methyl-1H-indol-3-ylsulfanyl]-benzoic acid]
< 300	Cc1c(Sc2cccc(C(=O)O)c2)c2ccc(Cl)c(F)c2n1-c1cnn(C2CC2)c1 [Compound 3-47, 3-[6-Chloro-1-(1-cyclopropyl-1H-pyrazol-4-yl)-7-fluoro-2-methyl-1H-indol-3-ylsulfanyl]-benzoic acid]
< 300	Cc1c(Sc2cccc(C(=O)O)c2)c2ccc(Cl)c(F)c2n1-c1cn[nH]c1 [Compound 3-49, 3-[6-Chloro-7-fluoro-2-methyl-1-(1H-pyrazol-4-yl)-1H-indol-3-ylsulfanyl]-benzoic acid]
< 300	Cc1c(Sc2cccc(C(=O)O)c2)c2ccc(Cl)c(F)c2n1-c1cnn(CCO)c1 [Compound 3-50, 3-{6-Chloro-7-fluoro-1-[1-(2-hydroxy-ethyl)-1H-pyrazol-4-yl]-2-methyl-1H-indol-3-ylsulfanyl}-benzoic acid]

— patent US9000025B2, “Autotaxin inhibitors and uses thereof” (Amira Pharmaceuticals, Inc., priority 2010, dated 2015)
